Source: publication PMC6364417, “Kinase inhibitor library screening identifies synergistic drug combinations effective in sensitive and resistant melanoma cells” (Journal of Experimental & Clinical Cancer Research : CR, 2019)

Tests used:
Assay in all cases: Kinase inhibitor library screening, PrestoBlue cell viability, 1 or 10 μM, 72 h
[1] = system: IGR37-XP cells (Vemurafenib-resistant); details: IGR37 XP
Method: (§1) After 72 h of treatment, cell viability was assessed using the PrestoBlue Cell Viability Reagent (ThermoFisher Scientific). Measurements were performed with the CLARIOstar Monochromator microplate reader (BMG Labtech).
(§2) Kinase inhibitor library screening. […] Each cell line was treated in its sensitive form (parental), and also as 2 resistant derivatives, which were made resistant to either Vemurafenib (XP) or Dabrafenib (GP). Drugs were added at 2 different concentrations, 1 and 10 μM, for 72 h and cell viability was assessed using the PrestoBlue Cell Viability assay. Results are depicted as % viability compared to untreated cells. Each cell line was analyzed at least in duplicate. […] (XLSX 95 kb)

IGR37 cells (parental) = details: IGR37 Parental
Method: as §1, §2

A375 cells (parental) = details: A375 Parental
Method: as §1, §2

[2] = system: 501Mel-XP cells (Vemurafenib-resistant); details: 501Mel XP
Method: as §1, §2

[3] = system: A375-GP cells (Dabrafenib-resistant); details: A375 GP
Method: as §1, §2

501Mel cells (parental) = details: 501Mel Parental
Method: as §1, §2

[4] = system: IGR37-GP cells (Dabrafenib-resistant); details: IGR37 GP
Method: as §1, §2

[5] = system: A375-XP cells (Vemurafenib-resistant); details: A375 XP
Method: as §1, §2

[6] = system: 501Mel-GP cells (Dabrafenib-resistant); details: 501Mel GP
Method: as §1, §2

Row | Structure (SMILES) | cell viability, IGR37 XP, 10μΜ ([1]; 10μΜ, 72 h) [%] | cell viability, IGR37 XP, 1μΜ ([1]; 1μΜ, 72 h, in %) | cell viability, IGR37 Parental, 1μΜ (IGR37 cells (parental); 1μΜ, 72 h, in %) | cell viability, IGR37 Parental, 10μΜ (IGR37 cells (parental); 10μΜ, 72 h, in %) | cell viability, A375 Parental, 1μΜ (A375 cells (parental); 1μΜ, 72 h, in %) | cell viability, A375 Parental, 10μΜ (A375 cells (parental); 10μΜ, 72 h, in %) | cell viability, 501Mel XP, 1μΜ ([2]; 1μΜ, 72 h, in %) | cell viability, 501Mel XP, 10μΜ ([2]; 10μΜ, 72 h, in %) | cell viability, A375 GP, 1μΜ ([3]; 1μΜ, 72 h, in %) | cell viability, A375 GP, 10μΜ ([3]; 10μΜ, 72 h, in %) | cell viability, 501Mel Parental, 1μΜ (501Mel cells (parental); 1μΜ, 72 h, in %) | cell viability, 501Mel Parental, 10μΜ (501Mel cells (parental); 10μΜ, 72 h, in %) | cell viability, IGR37 GP, 10μΜ ([4]; 10μΜ, 72 h) [%] | cell viability, IGR37 GP, 1μΜ ([4]; 1μΜ, 72 h, in %) | cell viability, A375 XP, 10μΜ ([5]; 10μΜ, 72 h, in %) | cell viability, 501Mel GP, 1μΜ ([6]; 1μΜ, 72 h, in %) | cell viability, 501Mel GP, 10μΜ ([6]; 10μΜ, 72 h, in %) | cell viability, A375 XP, 1μΜ ([5]; 1μΜ, 72 h, in %) | other results
1 | CC(O)C(=O)O.CC(O)C(=O)O.CN1CCN(c2ccc3nc(-c4c(N)c5c(F)cccc5[nH]c4=O)[nH]c3c2)CC1 | 33 | 106.9 | 105.9 | 76.1 | 106.9 | 48.0 | 91.1 | -0.0481 | 91.8 | 46.4 | 106.3 | 0.756 | 46.5 | 106.1 | 59.2 | 100.0 | 0.0395 | – | –
2 | COc1cc(Nc2ncc(F)c(Nc3ccc4c(n3)N(COP(=O)([O-])[O-])C(=O)C(C)(C)O4)n2)cc(OC)c1OC.[Na+].[Na+] | – | – | – | – | – | – | – | – | – | – | – | – | – | – | – | – | – | – | cell viability (kinase inhibitor library screening) ([1]; 1μΜ, in %): 94.1; cell viability (kinase inhibitor library screening) ([1]; 10μΜ, in %): 20.4; cell viability (kinase inhibitor library screening) (IGR37 cells (parental); 1μΜ, in %): 103.8; cell viability (kinase inhibitor library screening) (IGR37 cells (parental); 10μΜ, in %): 87.6; cell viability (kinase inhibitor library screening) (A375 cells (parental); 10μΜ, in %): 56.1; cell viability (kinase inhibitor library screening) ([2]; 1μΜ, in %): 98.8; cell viability (kinase inhibitor library screening) ([2]; 10μΜ, in %): 37.9; cell viability (kinase inhibitor library screening) ([3]; 1μΜ, in %): 95.3; cell viability (kinase inhibitor library screening) ([3]; 10μΜ, in %): 57.6; cell viability (kinase inhibitor library screening) (501Mel cells (parental); 10μΜ, in %): 84.1; cell viability (kinase inhibitor library screening) ([4]; 1μΜ, in %): 89.3; cell viability (kinase inhibitor library screening) ([4]; 10μΜ, in %): 37.8; cell viability (kinase inhibitor library screening) ([5]; 10μΜ, in %): 70.0; cell viability (kinase inhibitor library screening) ([6]; 1μΜ, in %): 98.3; cell viability (kinase inhibitor library screening) ([6]; 10μΜ, in %): 70.8
3 | O=C1NC(=O)C(=Cc2ccc(-c3ccc(F)cc3)o2)S1 (stereo in doubt) [CAY10505] | – | – | – | – | – | – | – | – | – | – | – | – | – | – | – | – | – | – | Cell viability in kinase inhibitor library screening, IGR37 XP, 10μΜ ([1]; 10μΜ, 72 h): 77.3%; Cell viability in kinase inhibitor library screening, IGR37 Parental, 1μΜ (IGR37 cells (parental); 1μΜ, 72 h, in %): 103.7; Cell viability in kinase inhibitor library screening, IGR37 Parental, 10μΜ (IGR37 cells (parental); 10μΜ, 72 h, in %): 103.3; Cell viability in kinase inhibitor library screening, A375 Parental, 10μΜ (A375 cells (parental); 10μΜ, 72 h): 93.9; Cell viability in kinase inhibitor library screening, A375 Parental, 1μΜ (A375 cells (parental); 1μΜ, 72 h): 105.4; Cell viability in kinase inhibitor library screening, 501Mel XP, 1μΜ ([2]; 1μΜ, 72 h, in %): 99.8; Cell viability in kinase inhibitor library screening, 501Mel XP, 10μΜ ([2]; 10μΜ, 72 h, in %): 90.3; Cell viability in kinase inhibitor library screening, A375 GP, 1μΜ ([3]; 1μΜ, 72 h): 99.9; Cell viability in kinase inhibitor library screening, 501Mel Parental, 1μΜ (501Mel cells (parental); 1μΜ, 72 h, in %): 99.8; Cell viability in kinase inhibitor library screening, 501Mel Parental, 10μΜ (501Mel cells (parental); 10μΜ, 72 h, in %): 97.3; Cell viability in kinase inhibitor library screening, IGR37 GP, 10μΜ ([4]; 10μΜ, 72 h): 94.4%; Cell viability in kinase inhibitor library screening, IGR37 GP, 1μΜ ([4]; 1μΜ, 72 h, in %): 98.2; Cell viability in kinase inhibitor library screening, A375 XP, 1μΜ ([5]; 1μΜ, 72 h): 107.0; Cell viability in kinase inhibitor library screening, A375 XP, 10μΜ ([5]; 10μΜ, 72 h): 110.5; Cell viability in kinase inhibitor library screening, 501Mel GP, 1μΜ ([6]; 1μΜ, 72 h, in %): 96.4; Cell viability in kinase inhibitor library screening, 501Mel GP, 10μΜ ([6]; 10μΜ, 72 h, in %): 89.6
4 | Cc1[nH]nc2ccc(-c3cncc(OC[C@@H](N)Cc4ccccc4)c3)cc12 [A-674563] | – | – | – | – | – | – | – | – | – | – | – | – | – | – | – | – | – | – | cell viability (kinase inhibitor library screening) ([1]; 1μΜ, 72 h): 78.0%; cell viability (kinase inhibitor library screening) ([1]; 10μΜ, 72 h): 2.1%; cell viability (kinase inhibitor library screening) (IGR37 cells (parental); 1μΜ, 72 h): 96.7%; cell viability (kinase inhibitor library screening) (IGR37 cells (parental); 10μΜ, 72 h): 1.9%; cell viability (kinase inhibitor library screening) (A375 cells (parental); 10μΜ, 72 h): 4.6%; cell viability (kinase inhibitor library screening) (A375 cells (parental); 1μΜ, 72 h): 82.1%; cell viability (kinase inhibitor library screening) ([2]; 1μΜ, 72 h): 56.5%; cell viability (kinase inhibitor library screening) ([2]; 10μΜ, 72 h): 0.5%; cell viability (kinase inhibitor library screening) ([3]; 1μΜ, 72 h): 63.4%; cell viability (kinase inhibitor library screening) ([3]; 10μΜ, 72 h): 2.7%; cell viability (kinase inhibitor library screening) (501Mel cells (parental); 1μΜ, 72 h): 73.1%; cell viability (kinase inhibitor library screening) (501Mel cells (parental); 10μΜ, 72 h): 1.4%; cell viability (kinase inhibitor library screening) ([4]; 1μΜ, 72 h): 99.0%; cell viability (kinase inhibitor library screening) ([4]; 10μΜ, 72 h): 2.8%; cell viability (kinase inhibitor library screening) ([5]; 1μΜ, 72 h): 54.3%; cell viability (kinase inhibitor library screening) ([5]; 10μΜ, 72 h): 6.6%; cell viability (kinase inhibitor library screening) ([6]; 1μΜ, 72 h): 64.5%; cell viability (kinase inhibitor library screening) ([6]; 10μΜ, 72 h): 0.638%
5 | N#Cc1c(O)c2c(-c3ccc(-c4ccccc4O)cc3)csc2[nH]c1=O [A-769662] | – | – | – | – | – | – | – | – | – | – | – | – | – | – | – | – | – | – | cell viability (kinase inhibitor library screening) ([1]; 1μΜ, 72 h): 104.5%; cell viability (kinase inhibitor library screening) ([1]; 10μΜ, 72 h): 84.8%; cell viability (kinase inhibitor library screening) (IGR37 cells (parental); 1μΜ, 72 h): 105.9%; cell viability (kinase inhibitor library screening) (IGR37 cells (parental); 10μΜ, 72 h): 111.3%; cell viability (kinase inhibitor library screening) (A375 cells (parental); 10μΜ, 72 h): 97.0%; cell viability (kinase inhibitor library screening) (A375 cells (parental); 1μΜ, 72 h): 105.0%; cell viability (kinase inhibitor library screening) ([2]; 1μΜ, 72 h): 97.4%; cell viability (kinase inhibitor library screening) ([2]; 10μΜ, 72 h): 85.6%; cell viability (kinase inhibitor library screening) ([3]; 10μΜ, 72 h): 96.0%; cell viability (kinase inhibitor library screening) (501Mel cells (parental); 1μΜ, 72 h): 99.2%; cell viability (kinase inhibitor library screening) (501Mel cells (parental); 10μΜ, 72 h): 97.1%; cell viability (kinase inhibitor library screening) ([4]; 10μΜ, 72 h): 94.7%; cell viability (kinase inhibitor library screening) ([5]; 1μΜ, 72 h): 104.3%; cell viability (kinase inhibitor library screening) ([6]; 10μΜ, 72 h): 87.9%
6 | CCN1CCN(Cc2ccc(-c3cc4c(N[C@H](C)c5ccccc5)ncnc4[nH]3)cc2)CC1 [AEE788 (NVP-AEE788)] | 25.4 | 82.4 | – | 87.9 | 108.2 | 70.3 | 105.3 | 0.239 | 110.2 | 49.2 | 103.7 | 1.2 | 82.6 | 94.0 | 70.7 | 114.3 | 1.2 | 105.5 | –
7 | N#C/C(=C\c1ccc(O)c(O)c1)C(=O)NCc1ccccc1 [AG-490] | 70.7 | 104.5 | 105.9 | – | – | 88.6 | 93.1 | 79.3 | – | 88.5 | 99.1 | 92.7 | 88.3 | – | 91.1 | 105.8 | 86.5 | 99.9 | –
8 | CC(C)(C)c1cc(C=C(C#N)C#N)cc(Br)c1O [AG-1024] | 46 | 95.7 | – | 96.2 | 99.7 | 86.3 | 99.5 | 85.0 | 98.0 | 86.9 | 98.8 | 98.3 | 76.8 | 96.1 | 89.1 | 109.0 | 85.4 | 106.8 | –
9 | COc1cc2ncnc(Nc3cccc(Cl)c3)c2cc1OC [AG-1478 (Tyrphostin AG-1478)] | 46.3 | 76.6 | 96.0 | 98.8 | – | 94.0 | 86.2 | 48.5 | 91.6 | 90.4 | 96.5 | 70.7 | 86.3 | 88.5 | 98.9 | 102.7 | 55.4 | 99.5 | –
